Laboratory results taken from US9200309B2, “Method for screening for S1P lyase inhibitors using cultured cells” (Daiichi Sankyo Company, Limited, priority 2010, dated 2015).
Like-named read-outs stand apart in the source and are kept apart here.

Legend:
Format in all cases: cell-based
SPL [1] = biological target: T1, SPL (Mus musculus, UniProt Q8R0X7); assay: Measurement of SPL activity in lysate of cells treated with compound
T1 construct: IT-79MTNC3 cells which are a mouse thymic epithelial cell line can be appropriately selected using the expression of an SPL protein as an index; host or cells: IT-79MTNC3 (mouse thymic epithelial cell line)
T1 sequence (Q8R0X7 1-568): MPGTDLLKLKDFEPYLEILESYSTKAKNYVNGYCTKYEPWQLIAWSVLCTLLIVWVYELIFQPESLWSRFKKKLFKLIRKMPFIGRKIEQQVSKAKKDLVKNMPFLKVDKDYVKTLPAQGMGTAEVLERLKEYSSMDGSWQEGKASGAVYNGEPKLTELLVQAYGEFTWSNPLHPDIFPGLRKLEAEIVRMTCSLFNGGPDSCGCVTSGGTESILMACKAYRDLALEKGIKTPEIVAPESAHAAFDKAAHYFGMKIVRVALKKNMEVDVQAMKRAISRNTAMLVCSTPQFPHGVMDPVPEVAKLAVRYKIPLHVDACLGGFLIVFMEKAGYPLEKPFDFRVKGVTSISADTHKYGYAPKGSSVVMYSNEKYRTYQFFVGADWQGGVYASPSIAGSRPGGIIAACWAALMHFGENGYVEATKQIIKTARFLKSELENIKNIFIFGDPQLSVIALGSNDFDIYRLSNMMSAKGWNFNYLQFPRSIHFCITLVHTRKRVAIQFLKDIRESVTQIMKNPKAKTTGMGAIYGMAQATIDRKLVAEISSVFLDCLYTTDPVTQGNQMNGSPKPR
Method: In order to prepare a lysate of cells treated with a test compound, IT-79MTNC3 cells were suspended in DMEM-10% FBS containing 25 μM fumonisin B1 and seeded in a 12-well plate for cell culture at 1×10^5 cells/well, and then cultured at 37° C. in the presence of 5% CO2 for a whole day and night. On the next day, the culture supernatant was first removed, and then, 500 μL of DMEM-0.1% BSA (or VB6-free DMEM-0.1% BSA) containing a serially diluted test compound was added thereto, and the cells were cultured at 37° C. in the presence of 5% CO2 for 4.5 hours. Thereafter, 55 μL of DMEM-0.1% BSA (or VB6-free DMEM-0.1% BSA) containing 10 μM dhSph was added thereto, and the cells were cultured at 37° C. in the presence of 5% CO2 for 30 minutes. After washing the IT-79MTNC3 cells with PBS, the cells were collected. Then, 150 μL of a homogenization buffer was added to the cells, and the resulting mixture was subjected to an ultrasonic treatment using a sonicator, followed by centrifugation at 4° C. for 3 minutes at 1,000 g, and the resulting supernatant was used as a cell lysate. The quantitative determination of protein by the Bradford method was carried out using a portion of the cell lysate. […]
In order to measure the SPL activity in the lysate prepared using the cells treated with the compound, the cell lysate was diluted to 1 mg protein/mL with a homogenization buffer, and the diluted solution was mixed with ^3H-dhS1P (3.4 nM) as a substrate and a reaction buffer (a 0.1 M potassium phosphate solution (pH-7.4), 25 mM NaF, 5 mM Na3VO4, 1 mM EDTA, 1 mM DTT, 0.1% Triton X-100, 2 μM cold dhS1P) to make the final volume 50 μL. […] A 30 μL portion of the resulting organic layer was taken and mixed with 5 mL of the liquid scintillator, and the radioactivity thereof was measured using a liquid scintillation counter. The obtained count was assumed to reflect the amount of degradation products by the SPL reaction, and the SPL activity of each sample was calculated as a ratio of that in the group without treatment with the compound.

SPL [2] = biological target: T1, SPL; assay: SPA using known SPL inhibitor: accumulation of 3H-dhS1P in IT-79MTNC3 cells; conditions: for EC50: read-out: EC50, activity of inhibiting the SPL activity
Method: A mouse thymic epithelial cell line (IT-79MTNC3 cells, The Cell Bank Division of Japan Health Sciences Foundation) was cultured using Dulbecco's Modified Eagle Medium (DMEM, Invitrogen) containing 10% fetal bovine serum (FBS) (DMEM-10% FBS) at 37° C. in the presence of 5% CO2. When the cells were used for transfection or assay, the cells were detached with 0.05% trypsin-EDTA (Invitrogen), followed by centrifugation, thereby collecting the cells. When the cells were treated with a compound or used for incorporating ^3H-dhSph, DMEM containing 0.1% bovine serum albumin (BSA, Sigma) (DMEM-0.1% BSA) or vitamin B6 group-depleted Dulbecco's Modified Eagle Medium (VB6-free DMEM, Cell Science & Technology Institute, Inc.) containing 0.1% BSA (VB6-free DMEM-0.1% BSA) was used.
In order to evaluate the activity of a test compound for accumulating ^3H-dhS1P, IT-79MTNC3 cells were suspended in DMEM-10% FBS containing 25 μM fumonisin B1, and seeded in a 96-well plate for cell culture at 1×10^4 cells/well, and then cultured at 37° C. in the presence of 5% CO2 for a whole day and night. On the next day, the culture supernatant was first removed, and then, 40 μL of DMEM-0.1% BSA (or VB6-free DMEM-0.1% BSA) containing a serially diluted test compound was added thereto, and the cells were cultured at 37° C. in the presence of 5% CO2 for 4.5 hours. Thereafter, 10 μL of DMEM-0.1% BSA (or VB6-free DMEM-0.1% BSA) containing 83 nM ^3H-dhSph and 5 μM dhSph was added thereto, and the cells were cultured at 37° C. in the presence of 5% CO2 for 30 minutes. After the culture supernatant was removed, 70 μL of a cell lysis buffer was added thereto, and the resulting mixture was left at room temperature for 2 hours. A 50 μL portion of the resulting cell lysate was mixed with SPA beads (obtained by being diluted to 8 times such that glycerol was contained at 50% in the final concentration), which were previously dispensed into a white 96-well plate at 20 μL/well. Then, the plate was covered with a transparent plate seal and left overnight at room temperature under shading. On the next day, the radioactivity thereof was measured using a microplate scintillation counter. In the case of using VB6-free DMEM, before the culture medium containing the test compound was added, washing was carried out twice with 150 μL of VB6-free DMEM-0.1% BSA, thereby preventing the carryover of the vitamin B6 group contained in DMEM used when seeding.

SPL [3] = biological target: T1, SPL; assay: Measurement of intracellular S1P by LC-MS in IT-79MTNC3 cells
Method: In order to evaluate the activity of a test compound for accumulating S1P, IT-79MTNC3 cells were suspended in DMEM-10% FBS containing 25 μM fumonisin B1, and seeded in a 24-well plate for cell culture at 5×10^4 cells/well, and then cultured at 37° C. in the presence of 5% CO2 for a whole day and night. On the next day, the culture supernatant was first removed, and then, 450 μL of DMEM-0.1% BSA (or VB6-free DMEM-0.1% BSA) containing a serially diluted test compound was added thereto, and the cells were cultured at 37° C. in the presence of 5% CO2 for 4.5 hours. Thereafter, 50 μL of DMEM-0.1% BSA (or VB6-free DMEM-0.1% BSA) containing 10 μM Sph (Enzo Life Sciences) was added thereto, and the cells were cultured at 37° C. in the presence of 5% CO2 for 30 minutes. After the culture supernatant was removed, the cells were washed with PBS and collected. Then, 150 μL of a mixed solution of acetonitrile and 1 M hydrochloric acid (acetonitrile:hydrochloric acid=4:1) was added to the cells, and the resulting mixture was subjected to an ultrasonic treatment using a sonicator. The amount of S1P was measured by LC-MS by Mitsubishi Chemical Medience Corporation. In the case of using VB6-free DMEM, before the culture medium containing the test compound was added, washing was carried out twice with 600 μL of VB6-free DMEM-0.1% BSA, thereby preventing the carryover of the vitamin B6 group contained in DMEM used when seeding.

[4] = in the presence of 100 nM pyridoxine

| SMILES | activity on SPL activity in the lysate (SPL [1]; VB6-free DMEM, FIG. 5(3)) | activity on SPL activity in the lysate (SPL [1]; normal conditions (DMEM), FIG. 4(3)) | effective concentration in SPA as compared with normal DMEM (SPL [2]; VB6-free DMEM, FIG. 5(1)) | EC50 (SPL [2]; [4]) [µM] | EC50 (SPL [2]; in the presence of 1 μM pyridoxine) [µM] | EC50 (SPL [2]; normal DMEM (containing about 20 μM pyridoxine)) [µM] | response by SPA (accumulation of 3H-dhS1P) (SPL [2]; normal conditions (DMEM), FIG. 4(1)) | activity on amount of intracellular S1P (SPL [3]; VB6-free DMEM, FIG. 5(2)) | activity on amount of intracellular S1P (SPL [3]; normal conditions (DMEM), FIG. 4(2)) | activity in SPA (accumulation of 3H-dhS1P) (SPL [2]; VB6-free DMEM, FIG. 5(1)) | inhibitory activity against the SPL activity (SPL [2]; in the presence 1 μM pyridoxine) | inhibitory activity against the SPL activity (SPL [2]; normal DMEM) |
| --- | --- | --- | --- | --- | --- | --- | --- | --- | --- | --- | --- | --- |
| Cc1ncc(CO)c(C)c1O [DOP, 4-deoxypyridoxine] | exhibited their activity in substantially the same concentration range | detected in substantially the same concentration range | significantly decreased | 0.027 | 1.6 | 46 | concentration-dependent response | exhibited their activity in substantially the same concentration range | detected in substantially the same concentration range |  |  |  |
| CC(=O)c1nc(C(O)C(O)C(O)CO)c[nH]1 (stereo not drawn) [THI, 2-acetyl-4-tetrahydroxybutylimidazole] | exhibited their activity in substantially the same concentration range |  |  | ~250 |  |  |  | exhibited their activity in substantially the same concentration range |  | concentration-dependent activity was detected | could not be observed | could not be observed |
